According to article PMC3790851, “Improved Mass Spectrometry Assay For Plasma Hepcidin: Detection and Characterization of a Novel Hepcidin Isoform” (PLoS ONE, 2013):

Columns and labels:
[1] = Stability of hepcidin in plasma/serum at room temperature (WCX-TOF MS); type: in vitro ADME, human
Procedure: Spectra were analyzed by using Bruker Daltonics FlexAnalysis software.
To assess the stability of hepcidin in serum and plasma matrices, we kept samples from intensive care patients (n = 20) and healthy controls (n = 5) at room temperature for 0–7 days followed by WCX-TOF MS analysis using the hepcidin-25^+40 internal standard. […] For the samples at day 1 and day 7, the mean decrease in hepcidin-25 for the 5 controls and 20 intensive care patients was 90% (CV, 8% ) and 55% (CV, 23%), respectively (Table 3).

[2] = serum from 12 healthy controls; stable for; ref 35 Itkonen et al.; cited from earlier work
[3] = not given; remark: listed apart in the source
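Throughout, for Hepcidin level after one week at -20°C, EDTA plasma: hepcidin in stored plasma or serum quantified by MALDI-TOF MS against a heavy hepcidin-25 internal standard, expressed relative to concentrations in freshly collected samples.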
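Throughout, for no significant change at -20°C for: hepcidin in stored plasma or serum quantified by MALDI-TOF MS against a heavy hepcidin-25 internal standard, expressed relative to concentrations in freshly collected samples.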
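Throughout, for stable at -20°C for: hepcidin in stored plasma or serum quantified by MALDI-TOF MS against a heavy hepcidin-25 internal standard, expressed relative to concentrations in freshly collected samples.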

CC[C@H](C)[C@@H]1NC(=O)[C@@H](NC(=O)[C@@H](NC(=O)[C@@H]2CCCN2C(=O)[C@H](Cc2ccccc2)NC(=O)[C@H](Cc2c[nH]cn2)NC(=O)[C@@H](NC(=O)[C@@H](N)CC(=O)O)[C@@H](C)O)[C@@H](C)CC)CSSC[C@@H](C(=O)N[C@@H](CCCCN)C(=O)N[C@H](C(=O)O)[C@@H](C)O)NC(=O)[C@@H]2CSSC[C@H](NC(=O)[C@H](Cc3ccccc3)NC1=O)C(=O)N[C@H]1CSSC[C@H](NC(=O)[C@H](CCCCN)NC(=O)[C@H](CO)NC(=O)[C@H](CCCNC(=N)N)NC(=O)[C@H](Cc3c[nH]cn3)NC(=O)[C@@H]3CSSC[C@H](NC(=O)CNC1=O)C(=O)N3)C(=O)NCC(=O)N[C@@H](CCSC)C(=O)N2 [Hepcidin-25]
stable at -20°C for (EDTA and heparin plasma of 10 intensive care patients and 5 controls): at least 4 weeks
Hepcidin level after one week at -20°C, EDTA plasma (average, % of fresh, 10 IC patients and 5 controls, CV (Hep-25/-24/-22/-20) 11/12/11/28, n = 15/8/6/9, hepcidin-20 unreliable (additional peak)): 96%
hepcidin-25 relative to fresh samples upon freezing (heparin samples at 7 days, -20°C, IC + control n = 15, CV 8%): 95%
no significant change at -20°C for (serum, heparin, EDTA and citrate plasma of healthy controls (n = 5)): at least 6 months
Hepcidin level after one week at RT ([1]; average, % of fresh sample, 7 days, human heparin plasma, 19 IC patients + 5 controls, results <1.0 nM removed, WCX-TOF MS, hepcidin-25^+40 internal standard, CV (Hep-25/-24/-22/-20/Total) 23/29/29/38/17, n = 24/15/13/18/11): 55%
Hepcidin level after one day at RT ([1]; average, % of fresh sample, human heparin plasma, 19 IC patients + 5 controls, results <1.0 nM removed, WCX-TOF MS, hepcidin-25^+40 internal standard, CV (Hep-25/-24/-22/-20/Total) 8/21/14/25/5, n = 24/15/13/18/11): 90%
Hepcidin level after one week at RT, without protease inhibitors ([1]; average, % of fresh, 7 days, heparin plasma, 10 IC patients, results <1 nM excluded, CV (Hep-25/-24/-22/-20) 30/31/23/41, n = 10/8/7/8): 48%
Hepcidin level after one day at RT, without protease inhibitors ([1]; average, % of fresh, heparin plasma, 10 IC patients, results <1 nM excluded, CV (Hep-25/-24/-22/-20) 13/20/11/11, n = 10/8/7/8): 89%
mean hepcidin-25 level remaining at day 1 at RT, % of fresh ([1]; heparin plasma, 5 controls and 20 intensive care patients, CV 8%): 90%
effect of protease inhibitors on hepcidin-25 decrease ([1]; heparin samples of IC patients (n = 10), RT): prevented hepcidin-25 processing to a certain extend but did not block its decrease completely
remaining at 168 h ([1]; human, average, % of fresh, 7 days, heparin plasma, 10 IC patients, Complete Mini (Roche), CV (Hep-25/-24/-22/-20) 25/35/9/25, n = 10/8/7/8, read-out: Hepcidin level after one week at RT, with protease inhibitors): 69%
remaining at 1 day ([1]; human, average, % of fresh, heparin plasma, 10 IC patients, Complete Mini (Roche), 1 tablet in 200 µL PBS, 20 µL per 1 ml plasma, CV (Hep-25/-24/-22/-20) 8/30/4/14, n = 10/8/7/8, read-out: Hepcidin level after one day at RT, with protease inhibitors): 91%
stability at room temperature [2]: 1 days
Hepcidin level after one day at 4°C, EDTA plasma ([3]; average, % of fresh, 10 IC patients and 5 controls, results <1.0 nM deleted, CV (Hep-25/-24/-22/-20) 11/6/11/22, n = 15/8/6/9): 101%
Hepcidin level after one week at 4°C, EDTA plasma ([3]; average, % of fresh, 7 days, 10 IC patients and 5 controls, CV (Hep-25/-24/-22/-20) 9/8/18/21, n = 15/8/6/9, hepcidin-20 in stored EDTA plasma unreliable (additional peak)): 101%
stability at 4°C for 0–7 days ([3]; heparin and EDTA plasma (10 IC patients, 5 controls), citrate plasma and serum (5 controls)): remained stable
